“And” between values parts separate entries of the source, which are not always exact repeats. Identical values can stand only once. Like-named read-outs stand apart in the source and are kept apart here.
What was measured:
dt^sz mutant hamster = assay type: in vivo, Syrian golden hamsters; settings: for Maximum severity 1st h, drug: individual animals and Mean, score 0-6; for Latency to onset (min), Drug: time to stage 2, mean ± S.E.; for suppressing the symptoms of dystonia (summary statement): summary for the two animal models of dystonia/dyskinesia, no dose given; for Latency max (min), drug: latency to stage 6
Source text: Animals The dt^sz mutant hamsters (Syrian golden hamsters), used in the present experiments, were obtained by selective breeding as described in detail elsewhere (Richter and Löscher, 1998). In this inbred line of mutant hamsters the motor disturbances are transmitted by a recessive gene. All animal groups consisted of male and female hamsters, because there was no indication of sex-related differences in the severity of dystonia or in the response to drugs (Richter and Löscher, 1998). The animals were born and kept under controlled environmental conditions (23-25° C., 50-60% humidity, 13 h light/11 h dark cycle) with free access to standard Altromin 7204 diet and water. In cases of oral administrations the food was deprived for 2 h prior to the experiments. All experiments were carried out in the morning (08.30-12.00 a.m.) at controlled temperatures (23-25° C.).
Induction of dystonic episodes and severity-score of dystonia. […] After this procedure, dt^sz hamsters develop a sequence of abnormal movements and postures. Dystonia is the predominant symptom in these animals. The severity of dystonia can be rated by following score-system (Richter and Löscher, 1998): stage 1, flat body posture; stage 2, facial contortions, rearing with forelimbs crossing, disturbed gait with hyperextended forepaws; stage 3, hyperextended hindlimbs so that the animals appear to walk on tiptoes; stage 4, twisting movements and loss of balance; stage 5, hindlimbs hyperextended caudally; stage 6, immobilisation in a twisted, hunched posture with hind- and forelimbs tonically extended forward. After reaching the individual maximum stage the hamsters recover within 2-5 hours. The individual maximum stage of dystonia is usually reached within 3 hours after the hamsters were placed into the new cage. Therefore, the animals have to be observed for 3 h after the induction of dystonic attacks to determine the individual maximum stage reached after administrations of drugs or of vehicle (for pre- and post-drug control recordings).
In the present study, all animals were examined for the presence of dystonia after weaning at the age of 21 days by the triple stimulation procedure, including injections of saline. […] All groups of mutant hamsters used for investigations were repeatedly tested by triple stimulations (injections of saline) every 2 to 3 days after weaning until the severity of dystonia and latencies to the different stages were reproducible. The drug experiments were done in 30-42 days old hamsters, i.e. at an age of the maximum severity of dystonia.
Drug experiments The effects of the Kv7.2/7.3 channel activators retigabine (5, 7.5 and 10 mg/kg i.p. and 10 and 20 mg/kg p.o.) and flupirtine (10 and 20 mg/kg i.p.) were examined in groups of 6-10 dt^s/z hamsters. The total number of animals used for the present experiments was 68. The compounds were freshly dissolved in saline prior the experiments. Dystonic attacks were induced by the procedure of triple stimulation, as described above, but instead of saline the active compound was injected (injection volume: 5 ml/kg i.p. or p.o.). Pre- and post-drug control trials with the vehicle (injection volume: 5 ml/kg saline i.p. or p.o.) were undertaken 2-3 days before and 2-3 days after drug testing in the same animals. […] During this period the severity of dystonia, the latencies to the different stages and the side effects were noted. The rater of the severity score (and of the latencies to stages) was unaware whether the animals were treated with vehicle or an active principle. A second person who had done the preparation of the solutions observed the animals for behavioural effects. The side effects were not quantified, but locomotor activity and ataxia were determined according to a score system, as previously described (Löscher and Richter, 1994). […]

[1] = test system: L-DOPA induced dyskinesia in 6-OHDA lesioned rats; experiment: chronic model of L-DOPA induced dyskinesia in unilaterally 6-OHDA lesioned rats (dyskinesia score); assay type: in vivo; set-up: side effects: dose or concentration left out as unconfirmed
Source text: Method: The model has been developed by Cenci, Lee and Bjorklund (L-DOPA-induced dyskinesia in the rat is associated with striatal overexpression of prodynorphin- and glutamic acid decarboxylase mRNA, Eur J. Neurosci. 1998; 10:2694-706) and was modified to show more severe dyskinesia. In brief, rats are first unilaterally lesioned in the medial forebrain bundle resulting in a near complete loss of the mesostriatal dopamine pathway. After a recovery, rats receive daily doses of both, L-DOPA and benserazide. Within less than 3 weeks, rats develop typical dyskinetic movements, both affecting their forearms and the oral regions. […] The dyskinesia can be quantified using an easy and reliable scoring system developed by Cenci et al.
Dopamine-denervating lesions were performed by unilateral injections of 8 μg 6-OHDA in the left medial forebrain bundle of female Sprague-Dawley rats. All rats were tested for amphetamine-induced rotational behaviour 2 weeks after the injection. Rats showing >4 ipsilateral rotations/min over a 90-minute period were presumed to have a striatal dopamine depletion of more than 90%. At 4 weeks post lesion, 2 groups started to receive chronic treatment with either 20 mg/kg levodopa and 15 mg/kg benserazide or vehicle for 20 days. For rating, dyskinesia was classified into three subtypes (limb, axial and orolingual) and scored from 0 (=absent) to 4 (=permanent, not suppressible) over 200 minutes and every 30 minutes.
Results and Discussion: For drug testing, retigabine (2.5 and 5 mg/kg) was administered additional to levodopa and vehicle respectively. Effects of drug action in comparison to vehicle controls were detected by adding up the severity scores of each observation time.
To test the effect of flupirtine, the compound was administered at the dose of 10 mg/kg i.p. after administration of L-DOPA in these rats. A full cross over design was utilized to account for individual variability. […] The studies are ongoing and will we extended to cover a full dose range. Also, other neuronal potassium channel openers covered by the patent application will be tested. […]

[2] = mean of 10 animals, 20 mg/kg i.p., age 36-38 days of life
[3] = 20 mg/kg p.o., first hour after administration

CCOC(=O)Nc1ccc(NCc2ccc(F)cc2)nc1N [Flupirtine, ethyl-N-[2-amino-6-(4-fluorophenylmethylamino)pyridin-3-yl]-carbamate]
antidystonic effects (dt^sz mutant hamster; 10 mg/kg i.p.): did not exerted significant antidystonic effects | Maximum severity 1st h, drug (dt^sz mutant hamster; 10 mg/kg i.p.): 3 score (6×) and 2 score (2×) | Latency to onset (min), Drug (dt^sz mutant hamster; 10.0 mg/kg i.p., n=8): 6.9 ± 1.6 min | adverse effects (dt^sz mutant hamster; 10 mg/kg i.p., within the first hour after administration): moderate hypolocomotion and ataxia | ataxia (dt^sz mutant hamster; 20 mg/kg i.p.): more marked ataxia (lasting up to 90 min) | latency to onset of dystonia (dt^sz mutant hamster; 20 mg/kg i.p.): increased the latency to onset of dystonia | progression of dystonia (dt^sz mutant hamster; 20 mg/kg i.p., first and second h): delayed the progression of dystonia | locomotion (dt^sz mutant hamster; 20 mg/kg i.p., hyperlocomotion 15-60 min after injection): unequivocal hypolocomotion (5 to 15 min after injection) followed by hyperlocomotion | maximum severity of dystonia (dt^sz mutant hamster; 20 mg/kg i.p., third h): reduced the maximum severity | Latency to onset (min), Drug (dt^sz mutant hamster; 20.0 mg/kg i.p., n=10, *P<0.05): 13.8 ± 3.8* min | Maximum severity 1st h (score of dystonia), drug (dt^sz mutant hamster; individual animals, 20 mg/kg i.p. (in 0.9% NaCl), dt^sz hamsters, age 36-38 days of life): 2 score | Latency max (latency to stage 6), drug (dt^sz mutant hamster; individual animals, 20 mg/kg i.p., age 36-38 days of life): 154 min | Latency onset (latency on stage 2), drug, Mean (dt^sz mutant hamster; [2]): 13.8 min | Maximum severity 1st h (score of dystonia), drug, Mean (dt^sz mutant hamster; [2]): 2.0 score | Maximum severity 2nd h (score of dystonia), drug, Mean (dt^sz mutant hamster; [2]): 2.6 score | Maximum severity 3rd h (score of dystonia), drug, Mean (dt^sz mutant hamster; [2]): 2.9 score | suppressing the symptoms of dystonia (summary statement) (dt^sz mutant hamster): found to be effective | tolerability ([1]; 10 mg/kg i.p. after administration of L-DOPA): well tolerated | dyskinetic symptoms ([1]; 10 mg/kg i.p. after administration of L-DOPA, cross over design): capable of suppressing the typical dyskinetic symptoms

CCOC(=O)Nc1ccc(NCc2ccc(F)cc2)cc1N [Retigabine, 2-amino-4-(4-fluorobenzylamino)-1-ethoxycarbonyl-aminobenzene]
Latency max (min), drug (dt^sz mutant hamster; 5 mg/kg i.p., individual animals): 43 min and 87 min and 39 min | Latency to onset (min), Drug (dt^sz mutant hamster; 5.0 mg/kg i.p., n=9): 27.1 ± 17.7 min | Latency max (min), drug (dt^sz mutant hamster; 7.5 mg/kg i.p., individual animals): 149 min | Latency to onset (min), Drug (dt^sz mutant hamster; 7.5 mg/kg i.p., n=6, *P<0.05): 11.8 ± 1.0* min | pain after injection (dt^sz mutant hamster; 10 mg/kg i.p., first 5 min after injection): writhed with pain | Latency to onset (min), Drug (dt^sz mutant hamster; 10.0 mg/kg i.p., n=9): 7.1 ± 2.9 min | Maximum severity 1st h, drug (dt^sz mutant hamster; 10 mg/kg p.o.): 3 score (6×) and 2 score | Latency max (min), drug (dt^sz mutant hamster; 10 mg/kg p.o., individual animals): 168 min and 148 min | Latency to onset (min), Drug (dt^sz mutant hamster; 10.0 mg/kg p.o., n=7): 4.9 ± 2.9 min | locomotor activity (dt^sz mutant hamster; 10 mg/kg p.o., two hamsters): moderate reduction of the locomotor activity | ataxia (dt^sz mutant hamster; [3]): seven animals exhibited moderate ataxia | hypolocomotion (dt^sz mutant hamster; [3]): five hamsters showed moderate hypolocomotion | Maximum severity 1st h, drug (dt^sz mutant hamster; 20 mg/kg p.o.): 2 score (9×) and 3 score | Latency max (min), drug (dt^sz mutant hamster; 20 mg/kg p.o., individual animals): 104 min | Latency to onset (min), Drug (dt^sz mutant hamster; 20.0 mg/kg p.o., n=10): 9.6 ± 2.0 min | general condition (dt^sz mutant hamster; four hamsters, 5 mg/kg i.p. five days after 10 mg/kg i.p., one euthanized, dilated colon): bad general condition | behavioural effects (dt^sz mutant hamster; i.p. injection, within the first h after administration): moderate to unequivocal hypolocomotion (sometimes interrupted by short lasting periods of increased locomotor activity) and ataxia | side effects (dt^sz mutant hamster; oral doses of 10 and 20 mg/kg): did not exert severe side effects | side effects ([1]; higher dosage, first hour of observation): marked hypolocomotion and ataxia

O=C1c2ccccc2C(Cc2ccncc2)(Cc2ccncc2)c2ccccc21 [XE-991, 10,10-bis(4-pyridinylmethyl)-9(10H)-anthracenone]
side effects (dt^sz mutant hamster; 6 mg/kg as printed, two out of 8 animals, facial contortions 10-20 min after administration): moderate to unequivocal hyperlocomotion and moderate ataxia (up to 180 min) and marked initial facial contortions | latency to onset of dystonia (dt^sz mutant hamster; i.p., not illustrated): tended to be decreased | side effects (dt^sz mutant hamster; the higher dose, all hamsters): facial contortions, salivation and increased defecation | side effects: locomotion and ataxia (dt^sz mutant hamster; the higher dose, first h after administration): unequivocal hyperlocomotion and ataxia

COc1ccc(Cl)cc1C1(F)C(=O)Nc2cc(C(F)(F)F)ccc21 (stereo not shown) [maxipost, 3-(5-chloro-2-methoxyphenyl)-1,3-dihydro-3-fluoro-6-(trifluoromethyl)-2H-indole-2-one]
suppressing the symptoms of dystonia (summary statement) (dt^sz mutant hamster): found to be active

From patent US20090137641A1, “Potassium Channel Activators for the Prevention and Treatment of Dystonia and Dystonia-Like Symptoms” (priority 2006, published 2009)
